In ChEMBL document CHEMBL3885861, “Open TG-GATES”:

Organism: Rattus norvegicus
Assay: Open TG-GATES - Regimen: Daily Repeat
Type: toxicity, organism-based, Sprague-Dawley
Design: regimen Daily Repeat, gender Male, age 6 weeks
Details: in vivo, po, route gavage; for gamma-GTP / ALP / AST / BUN / CRE / Ca / Cl / DBIL / GLC / IP / K / LDH / Na / PL / RALB / TBIL / TC / TG / TP: tissue Plasma; for APTT / Bas / Eos / Fbg / Hb / Ht / Lym / MCH / MCHC / MCV / Mono / Neu / PT / Plat / RBC / Ret / WBC: tissue Blood; for KIDNEY_L / KIDNEY_R / KIDNEY_TOTAL: tissue Kidney; for LIVER: tissue Liver
[1] = 300 mg/kg, 72 h, dose level Middle, time 3 day
[2] = 300 mg/kg, […], dose level Middle, time 7 day
[3] = 300 mg/kg, […], dose level Middle, time 14 day
[4] = 300 mg/kg, […], dose level Middle, time 28 day

COc1ccc2[nH]c([S+]([O-])Cc3ncc(C)c(OC)c3C)nc2c1 (centres undefined) [OMEPRAZOLE]
gamma-GTP (100 mg/kg, […], dose level Low, time 28 day): 0.8 IU/L
APTT [1]: 19.8 s
Bas [1]: 0%
Eos [1]: 0.8%
Fbg [1]: 223 mg/dL
Hb [1]: 13 g/dL
Ht [1]: 37.9%
Lym [1]: 81%
MCH [1]: 20.9 pg
MCHC [1]: 34.3%
MCV [1]: 60.9 fL
Mono [1]: 3.6%
Neu [1]: 14%
PT [1]: 12.2 s
Plat [1]: 135 x10_4/uL
RBC [1]: 623 x10_4/ul
Ret [1]: 4.2%
WBC [1]: 94 x10_2/uL
KIDNEY_L [1]: 1 g
KIDNEY_R [1]: 1 g
KIDNEY_TOTAL [1]: 2.1 g
LIVER [1]: 12.8 g
ALP [1]: 925.8 IU/L
AST [1]: 61.4 IU/L
BUN [1]: 14.8 mg/dL
CRE [1]: 0.4 mg/dL
Ca [1]: 10.5 mg/dL
Cl [1]: 100.8 meq/L
DBIL [1]: 0.058 mg/dL
GLC [1]: 220.6 mg/dL
IP [1]: 8.9 mg/dL
K [1]: 3.9 meq/L
LDH [1]: 184.6 IU/L
Na [1]: 139.8 meq/L
PL [1]: 175.8 mg/dL
RALB [1]: 3.4 g/dL
TBIL [1]: 0.1 mg/dL
TC [1]: 101.2 mg/dL
TG [1]: 85 mg/dL
TP [1]: 5.6 g/dL
gamma-GTP [1]: 1 IU/L
TERMINAL_BW [2]: 269.3 g
TERMINAL_BW [3]: 314.9 g
TERMINAL_BW [4]: 384.1 g
APTT [2]: 21.7 s
Bas [2]: 0%
Eos [2]: 1%
Fbg [2]: 216.8 mg/dL
Hb [2]: 13.4 g/dL
Ht [2]: 39.5%
Lym [2]: 78.8%
MCH [2]: 20.6 pg
MCHC [2]: 33.9%
MCV [2]: 60.8 fL
Mono [2]: 3%
Neu [2]: 17.4%
PT [2]: 12 s
Plat [2]: 156.8 x10_4/uL
RBC [2]: 649.8 x10_4/ul
Ret [2]: 4.9%
WBC [2]: 98.4 x10_2/uL
APTT [3]: 20.3 s
Bas [3]: 0%
Eos [3]: 0.8%
Fbg [3]: 211.4 mg/dL
Hb [3]: 13.6 g/dL
Ht [3]: 39.2%
Lym [3]: 83.8%
MCH [3]: 20 pg
MCHC [3]: 34.6%
MCV [3]: 57.6 fL
Mono [3]: 2.8%
Neu [3]: 11.4%
PT [3]: 12.2 s
Plat [3]: 128.3 x10_4/uL
RBC [3]: 681.4 x10_4/ul
Ret [3]: 4.2%
WBC [3]: 96 x10_2/uL
APTT [4]: 21.8 s
Bas [4]: 0%
Eos [4]: 0.8%
Fbg [4]: 203 mg/dL
Hb [4]: 14.5 g/dL
Ht [4]: 42.2%
Lym [4]: 80.4%
MCH [4]: 18.7 pg
MCHC [4]: 34.3%
MCV [4]: 54.6 fL
Mono [4]: 2.4%
Neu [4]: 15.6%
PT [4]: 12.4 s
Plat [4]: 119.7 x10_4/uL
RBC [4]: 773.8 x10_4/ul
Ret [4]: 2.7%
WBC [4]: 105.1 x10_2/uL
KIDNEY_L [2]: 1.1 g
KIDNEY_R [2]: 1.1 g
KIDNEY_TOTAL [2]: 2.2 g
KIDNEY_L [3]: 1.3 g
KIDNEY_R [3]: 1.3 g
KIDNEY_TOTAL [3]: 2.5 g
KIDNEY_L [4]: 1.4 g
KIDNEY_R [4]: 1.4 g
KIDNEY_TOTAL [4]: 2.9 g
LIVER [2]: 14.5 g
LIVER [3]: 15.7 g
LIVER [4]: 18.2 g
ALP [2]: 924.4 IU/L
AST [2]: 63.8 IU/L
BUN [2]: 17.2 mg/dL
CRE [2]: 0.4 mg/dL
Ca [2]: 10.8 mg/dL
Cl [2]: 101.2 meq/L
DBIL [2]: 0.086 mg/dL
GLC [2]: 208.6 mg/dL
IP [2]: 8.8 mg/dL
K [2]: 3.8 meq/L
LDH [2]: 248.4 IU/L
Na [2]: 140.8 meq/L
PL [2]: 173.8 mg/dL
RALB [2]: 3.4 g/dL
TBIL [2]: 0.1 mg/dL
TC [2]: 89 mg/dL
TG [2]: 124.8 mg/dL
TP [2]: 5.8 g/dL
gamma-GTP [2]: 1 IU/L
ALP [3]: 808.4 IU/L
AST [3]: 62 IU/L
BUN [3]: 17.2 mg/dL
CRE [3]: 0.5 mg/dL
Ca [3]: 10.5 mg/dL
Cl [3]: 101.6 meq/L
DBIL [3]: 0.066 mg/dL
GLC [3]: 205.4 mg/dL
IP [3]: 8.3 mg/dL
K [3]: 3.9 meq/L
LDH [3]: 198 IU/L
Na [3]: 141.4 meq/L
PL [3]: 162.6 mg/dL
RALB [3]: 3.6 g/dL
TBIL [3]: 0.1 mg/dL
TC [3]: 84.4 mg/dL
TG [3]: 78.4 mg/dL
TP [3]: 6 g/dL
gamma-GTP [3]: 0.8 IU/L
ALP [4]: 521.6 IU/L
AST [4]: 56.2 IU/L
BUN [4]: 15.6 mg/dL
CRE [4]: 0.5 mg/dL
Ca [4]: 10.3 mg/dL
Cl [4]: 101.6 meq/L
DBIL [4]: 0.062 mg/dL
GLC [4]: 221.8 mg/dL
IP [4]: 7.3 mg/dL
K [4]: 3.7 meq/L
LDH [4]: 135 IU/L
Na [4]: 141.6 meq/L
PL [4]: 134.8 mg/dL
RALB [4]: 3.5 g/dL
TBIL [4]: 0.1 mg/dL
TC [4]: 70 mg/dL
TG [4]: 66 mg/dL
TP [4]: 6.1 g/dL
gamma-GTP [4]: 1 IU/L
